Test results from publication PMC8962335, “In Vivo Evaluation of ECP Peptide Analogues for the Treatment of Acinetobacter baumannii Infection” (Biomedicines, 2022).
In brackets after ≈: the same amount, converted by molar mass. Several values for one entry are separate records, joined by “and”; a condition that tells them apart may be missing. Equal values may be shown once. Where a SMILES comes first, the peptide text is derived from it. Where no end group is shown, it is not given here.

Key:
P. aeruginosa = format: cell-based, Pseudomonas aeruginosa; conditions: 24 h
From the text: (§1) A. baumannii strain (CECT 452, Valencia, Spain, ATCC 15308, Manassas, VA, USA) and Pseudomonas aeruginosa (P. aeruginosa) strain (CECT 4122, Valencia, Spain, ATCC 15692, Manassas, VA, USA) were from the Colección Española de Cultivos Tipo (CECT, Valencia, Spain). The Escherichia coli (E. coli) BL21 (DE3) strain was from Novagen (Darmstadt, Germany). MRC-5 cells were from the American Type Culture Collection (ATCC, Manassas, VA, USA) and HEK293T cell line was kindly provided by Dr. Raquel Pequerul (UAB, Barcelona, Spain).
(§2) The MIC is defined as the lowest concentration of one reagent to prevent visible growth of bacteria. The MIC determination was followed by the protocol described previously. Briefly, bacteria in exponential growth were used to prepare a suspension in MHB with the approximate number of 5 × 10^5 CFU/mL. Next, an aliquot of 90 μL of bacteria suspension was added into each well of the 96-well polypropylene plate. Immediately, 10 μL of peptide diluted by 0.01% acetic acid was added to the corresponding well to have a final concentration ranging from 20 to 0.16 μM. The plate was incubated for 24 h at 37 °C, 100 rpm. The presence or absence of bacterial growth was visually inspected and confirmed by reading OD600 with Tecan Microplate Reader Spark®. Each test was performed in triplicate.

in vitro = conditions: human, MRC-5 cells; for CC50 at 24 h: LD50 (MRC-5) 24 h; for CC50 at 48 h: LD50 (MRC-5) 48 h
Description: (§3) Cytotoxicity was measured for the MRC-5 and HEK293T cell lines by MTT assay. Cells were grown in 5% CO2 at 37 °C with MRC-5 cell line maintained in MEMα and HEK293T in DMEM/F-12 media, both of which were supplemented with 10% FBS. The cells were passaged in 25 cm^2 or 75 cm^2 flasks to prepare 96-well plates with 3 × 10^4 cells/well, which were incubated overnight. Next, serial dilutions of ECPep-D and ECPep-2D-Orn were added to have a final concentration ranging from 100 to 0.78 μM (375 μg/mL to 3 μg/mL) and colistin was added at final concentrations ranging from 300 to 2.34 μM (380 μg/mL to 3 μg/mL) in corresponding wells. After incubation to the specified time, the medium of the plate was replaced by fresh medium containing 0.5 mg/mL MTT solution and the mixture was incubated for 2.5 h in 5% CO2 at 37 °C. The medium was then removed, and formazan was dissolved by adding DMSO. The optical density (OD) was recorded by using a Victor^3 plate reader (PerkinElmer, Waltham, MA, USA) set at 540 nm and 620 nm as a reference. Each test was performed in triplicate.

E. coli = format: cell-based, Escherichia coli; conditions: 24 h
From the text: as §1, §2

[1] = Tolerance study of peptides in mouse (Up and Down, main study, extra groups); format: in vivo, Balb/c mice; conditions: for clinical score: 30 mg/kg i.p., within 30 min; for clinical score / MTD: Up and Down assay; for MTD: in vivo, ip, one single dose, i.p., 1 mouse per peptide, read-out: maximum tolerated dose; for clinical signs after a single dose (main study): single i.p. dose: 20 mg/kg ECPep-D, 25 mg/kg ECPep-2D-Orn, all mice
Description: Initially, the “Up and Down” protocol was followed to determine the maximum lethal dose with some modifications. Briefly, one mouse was taken per peptide and increasing doses of the peptide were injected through the intraperitoneal (i.p.) route every 48 h, and the concentration at which the mouse had severe clinical symptoms or died was determined (Figure 1a).
Figure 1 Toxicity study plans. (a) “Up and Down” protocol: 1 mouse was injected, starting at a very low peptide dose and observed at 48 h intervals. […] (b) Main study: mice were divided into groups randomly; 1 as well as 2 peptide doses below the lethal dose from the “Up and Down” assay was given two times per day for 3 days (the protocol was readjusted in case of emergency owing to ethical principles, as detailed in the results section and Table S1). An extra group is for the vehicle. (c) Last study: Peptide was tested in smaller groups at lower doses depending on the results obtained from the main study.
Once the lethal concentration had been determined, we continued with the “main study” (Figure 1b). Two groups of 6 female mice were used at two different concentrations of both peptides, one and two concentrations below the maximum considered either by lethality or by clinical signs. The toxicity was further verified by mimicking the doses and frequency foreseen in the previous study, i.e., two doses per day for 3 days as the initial plan.
There was also an extra group to confirm the non-toxicity of the vehicle. For extra caution, some additional doses were applied to confirm the safety dose in case of repeated injections (Figure 1c).
Body weight (BW, g) of mice was measured before every injection and % BW gain was calculated. % BW gain = (new BW − initial BW)/initial BW × 100%(1)
In the tolerance study, for the “Up and Down” assay, the BW was recorded twice on the administration day and, for the “main study”, it was measured every day at the first 3 days and then at some selected days until the 16th day, when the monitoring was finished. In both efficacy assays, BW was recorded once a day but on the first day (Day 0), a second measure was conducted at 8 h.
The clinical symptoms were assessed through a scoring system, which contains 9 items, including changes of body weight, behavior, breathing, skin, hair, eyes and gastrointestinal status (see full list at Table S2). The score for each item increases from 0 to 3 according to the severe levels, up to a total of 27. During the study, when an animal obtained a score of 3 in any of the parameters assessed with a maximum score of 3, euthanasia was carried out to apply the endpoint criteria. Euthanasia would also be practiced if the sum of several parameters that are less than 3 separately was ≥ 7.
In the tolerance study, the clinical score was recorded at about 10 min, 30 min, 1 h, 2 h, 4 h, 7 h, 24 h and 48 h after injecting the peptides for the “Up and Down” assay and in the main study, the clinical score were only monitored when the BW was measured. During the efficacy assay, the clinical score was recorded every 2–3 h on Day 0 and then twice every day.

A. baumannii = format: cell-based, Acinetobacter baumannii; conditions: 24 h
From the text: as §1, §2

[2] = human serum in vitro; cited from earlier work
MRC-5 cells = experiment: Cytotoxicity assay (MTT); conditions: all the assayed time range (up to 48 h), highest concentration 100 μM
Description: as §3

HEK293T cells = conditions: 48 h
Description: as §3

| Compound | MIC P. aeruginosa (P. aeruginosa) [µM] | CC50 at 24 h (in vitro) | CC50 at 48 h (in vitro) | MIC E. coli (E. coli) [µM] | clinical score [1] | MTD [1] [mg/kg] | clinical signs after a single dose (main study) [1] | MIC A. baumannii (A. baumannii) [µM] | CC50 at 4 h (in vitro; LD50 (MRC-5) 4 h) | half-life time in human serum [2] [h] | toxicity for MRC-5 at the highest tested concentration (MRC-5 cells) | IC50 (HEK293T cells) [µM] |
| --- | --- | --- | --- | --- | --- | --- | --- | --- | --- | --- | --- | --- |
| CC[C@@H](C)[C@@H](NC(=O)[C@@H](C)NC(=O)[C@@H](CCCNC(=N)N)NC(=O)[C@@H](CCSC)NC(=O)[C@@H](C)NC(=O)[C@H](NC(=O)[C@H](NC(=O)[C@@H](CCCNC(=N)N)NC(=O)[C@H]1CCCN1C(=O)[C@@H](CO)NC(=O)[C@H](NC(=O)[C@@H](Cc1c[nH]cn1)NC(=O)[C@@H](CCC(N)=O)NC(=O)[C@H](NC(=O)[C@@H](C)NC(=O)[C@@H](Cc1ccccc1)NC(=O)[C@@H](Cc1c[nH]c2ccccc12)NC(=O)[C@@H](CCC(N)=O)NC(=O)[C@@H](C)NC(=O)[C@@H](CCCNC(=N)N)NC(=O)[C@H](NC(=O)[C@@H](Cc1ccccc1)NC(=O)[C@H]1CCCN1C(=O)[C@H](N)CCCNC(=N)N)[C@H](C)O)[C@H](C)CC)[C@H](C)CC)[C@H](C)O)[C@H](C)CC)C(=O)N[C@H](CC(N)=O)C(=O)N[C@H](CC(N)=O)C(=O)N[C@H](Cc1ccc(O)cc1)C(=O)N[C@H](CCCNC(=N)N)C(=O)N[C@H](Cc1c[nH]c2ccccc12)C(=O)N[C@H](CCCNC(=N)N)C(N)=O [ECPep-D] (HELM PEPTIDE1{[dR].[dP].[dF].[dT].[dR].[dA].[dQ].[dW].[dF].[dA].[dI].[dQ].[dH].[dI].[dS].[dP].[dR].[dT].[dI].[dA].[dM].[dR].[dA].[dI].[dN].[dN].[dY].[dR].[dW].[dR].[am]}$$$$V2.0) | 10 (≈ 37.6 µg/mL) | 164 ± 33.2 µg/mL (≈ 43.5 µM) | 88.4 ± 17.8 µg/mL (≈ 23.5 µM) | 10 (≈ 37.6 µg/mL) | over 6 | 20 | did not cause any obvious clinical signs | 10 (≈ 37.6 µg/mL) | – | – | – | – |
| RPFTRAQWFAIQHISPRTIAMRAINNYRWR-NH2 [ECPep-L] | 10 | – | – | 10 | – | – | – | 10 | 276 µM and > 1000 µg/mL | 0.2 | – | – |
| CC[C@H](C)[C@H](NC(=O)[C@H](C)NC(=O)[C@H](CCCN)NC(=O)[C@H](CCSC)NC(=O)[C@H](C)NC(=O)[C@@H](NC(=O)[C@@H](NC(=O)[C@H](CCCN)NC(=O)[C@@H]1CCCN1C(=O)[C@H](CO)NC(=O)[C@@H](NC(=O)[C@H](Cc1c[nH]cn1)NC(=O)[C@H](CCC(N)=O)NC(=O)[C@@H](NC(=O)[C@H](C)NC(=O)[C@H](Cc1ccccc1)NC(=O)[C@H](Cc1c[nH]c2ccccc12)NC(=O)[C@H](CCC(N)=O)NC(=O)[C@H](C)NC(=O)[C@H](CCCN)NC(=O)[C@@H](NC(=O)[C@H](Cc1ccccc1)NC(=O)[C@H]1CCCN1C(=O)[C@@H](N)CCCN)[C@@H](C)O)[C@@H](C)CC)[C@@H](C)CC)[C@@H](C)O)[C@@H](C)CC)C(=O)N[C@@H](CC(N)=O)C(=O)N[C@@H](CC(N)=O)C(=O)N[C@@H](Cc1ccc(O)cc1)C(=O)N[C@@H](CCCN)C(=O)N[C@@H](Cc1c[nH]c2ccccc12)C(=O)N[C@@H](CCCN)C(N)=O [ECPep-2D-Orn] (HELM PEPTIDE1{[Orn].[dP].F.T.[Orn].A.Q.W.F.A.I.Q.H.I.S.P.[Orn].T.I.A.M.[Orn].A.I.N.N.Y.[Orn].W.[Orn].[am]}$$$$V2.0) | >20 | > 100 µM and > 351 µg/mL | > 100 µM and > 351 µg/mL | >20 | over 6 | 25 | did not cause any obvious clinical signs | 5 (≈ 17.5 µg/mL) | – | > 8 | no toxicity was observed | > 100 |
